Experimental data from ChEMBL document CHEMBL1201862, “PubChem BioAssay data set” (2004).
Activity calls are given as the source filed them. Cut-off read from the data, not from the text of the source, for most assays here: actives have a measured EC50 and inactives only a lower limit.

Experiments:
[1] = Luminescence Cell-Based Dose Response HTS to Identify Activators of Luciferase Translation or Activity in H4 […] Cells. [Related pubchem assays: 1829 (Project Summary), 1814 (Primary HTS)]; type: functional
[2] = system: H4; test: Luminescence Cell-Based Dose Response HTS to Identify Activators of 5'UTR Stem-Loop Driven Prion Protein mRNA Translation in H4 Neuroglioblastoma Cells. [Related pubchem assays: 1829 (Project Summary), 1814 (Primary HTS)]; type: functional; conditions: Homo sapiens
[3] = molecular target: T1, Protein skinhead-1 (Caenorhabditis elegans, UniProt P34707); type: functional
T1 sequence (P34707 whole entry): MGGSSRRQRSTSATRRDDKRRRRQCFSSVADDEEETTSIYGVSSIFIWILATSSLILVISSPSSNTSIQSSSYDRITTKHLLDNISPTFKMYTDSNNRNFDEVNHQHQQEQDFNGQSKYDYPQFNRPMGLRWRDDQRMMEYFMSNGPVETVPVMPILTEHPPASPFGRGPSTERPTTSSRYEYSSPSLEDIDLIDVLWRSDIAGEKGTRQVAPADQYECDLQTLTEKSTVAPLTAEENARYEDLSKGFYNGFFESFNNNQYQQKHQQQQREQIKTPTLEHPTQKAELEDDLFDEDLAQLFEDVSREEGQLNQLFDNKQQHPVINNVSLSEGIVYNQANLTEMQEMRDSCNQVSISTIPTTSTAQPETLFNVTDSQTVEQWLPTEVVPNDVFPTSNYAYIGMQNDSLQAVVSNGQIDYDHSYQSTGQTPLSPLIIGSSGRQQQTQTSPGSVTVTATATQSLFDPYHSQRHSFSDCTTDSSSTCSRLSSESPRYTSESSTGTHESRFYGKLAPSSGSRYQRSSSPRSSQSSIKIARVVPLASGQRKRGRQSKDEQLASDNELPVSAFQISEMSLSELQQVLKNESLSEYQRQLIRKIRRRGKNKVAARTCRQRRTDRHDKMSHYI

[4] = molecular target: T2, Rac GTPase-activating protein 1 (Homo sapiens, UniProt Q9H0H5); test: blockers of MgcRacGAP-driven Rac1 GTP hydrolysis – biochemical, ADP Hunter fluorescence, primary and confirmatory, confirmation (AID 624330); type: functional
T2 sequence (Q9H0H5 whole entry): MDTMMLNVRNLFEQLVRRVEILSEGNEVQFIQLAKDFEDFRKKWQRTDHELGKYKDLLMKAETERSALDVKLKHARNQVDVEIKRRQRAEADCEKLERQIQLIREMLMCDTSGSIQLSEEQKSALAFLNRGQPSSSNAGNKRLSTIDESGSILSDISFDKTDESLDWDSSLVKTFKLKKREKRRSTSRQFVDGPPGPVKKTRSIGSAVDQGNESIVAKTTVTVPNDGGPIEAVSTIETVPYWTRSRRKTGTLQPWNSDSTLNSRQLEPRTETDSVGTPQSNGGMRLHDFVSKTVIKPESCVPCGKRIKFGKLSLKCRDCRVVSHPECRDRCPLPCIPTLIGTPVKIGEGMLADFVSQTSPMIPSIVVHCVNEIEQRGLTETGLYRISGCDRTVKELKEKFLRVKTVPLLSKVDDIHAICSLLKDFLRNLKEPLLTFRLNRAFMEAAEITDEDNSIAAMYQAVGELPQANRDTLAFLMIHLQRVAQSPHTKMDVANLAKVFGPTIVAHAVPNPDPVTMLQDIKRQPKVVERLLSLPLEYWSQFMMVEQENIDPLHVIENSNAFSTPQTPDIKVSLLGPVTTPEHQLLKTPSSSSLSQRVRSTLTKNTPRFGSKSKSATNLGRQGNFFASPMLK

[5] = viability of HCT116 lacking mutant beta-catenin – cell-based, human colon tumor, dose response (AID 1045); type: functional;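 note: HCT116 colon tumor cells with beta catenin knocked out; cells exposed to compound for 60 hours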
[6] = Luminescence Cell-Based Dose Confirmation HTS to Identify Activators of 5'UTR Stem-Loop Driven Alpha-Synuclein mRNA Translation in H4 Neuroglioblastoma Cells. [Related pubchem assays: 1829 (Project Summary), 1814 (Primary HTS)]; type: functional
[7] = molecular target: T3, Heat shock factor protein 1 (Mus musculus, UniProt P38532); test: decrease of HSF1-responsive luciferase luminescence – cell-based, NIH3T3, dose retest, confirmation (AID 2382); type: functional;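 note: NIH3T3 fibroblasts with HSF1-driven luciferase reporter stressed by proteasome inhibitor MG132; luminescence from HSF1-driven luciferase expression after 8 hours of MG132 stress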
T3 sequence (P38532 whole entry): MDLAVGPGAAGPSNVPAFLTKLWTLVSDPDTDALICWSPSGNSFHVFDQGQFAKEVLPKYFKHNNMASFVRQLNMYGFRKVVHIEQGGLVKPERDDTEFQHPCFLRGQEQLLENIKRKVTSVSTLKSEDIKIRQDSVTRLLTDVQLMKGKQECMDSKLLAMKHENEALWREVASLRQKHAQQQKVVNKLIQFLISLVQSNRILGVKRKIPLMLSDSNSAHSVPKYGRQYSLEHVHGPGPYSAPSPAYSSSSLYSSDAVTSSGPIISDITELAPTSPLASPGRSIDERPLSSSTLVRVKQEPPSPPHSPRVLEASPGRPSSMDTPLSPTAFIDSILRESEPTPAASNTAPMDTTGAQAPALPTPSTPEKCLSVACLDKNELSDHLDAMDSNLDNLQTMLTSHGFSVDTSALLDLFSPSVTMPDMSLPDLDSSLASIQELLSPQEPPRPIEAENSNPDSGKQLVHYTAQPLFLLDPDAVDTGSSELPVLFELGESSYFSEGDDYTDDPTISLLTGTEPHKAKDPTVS

[8] = molecular target: T4, Corticotropin-releasing factor receptor 2/Corticotropin-releasing factor-binding protein (Homo sapiens, UniProt P24387+Q13324); test: Dose Response confirmation of uHTS hits for small molecule antagonists of the CRF-binding protein and CRF-R2 receptor complex.; type: functional; conditions: read-out: IC50_Mean
T4 sequence (Q13324 whole entry): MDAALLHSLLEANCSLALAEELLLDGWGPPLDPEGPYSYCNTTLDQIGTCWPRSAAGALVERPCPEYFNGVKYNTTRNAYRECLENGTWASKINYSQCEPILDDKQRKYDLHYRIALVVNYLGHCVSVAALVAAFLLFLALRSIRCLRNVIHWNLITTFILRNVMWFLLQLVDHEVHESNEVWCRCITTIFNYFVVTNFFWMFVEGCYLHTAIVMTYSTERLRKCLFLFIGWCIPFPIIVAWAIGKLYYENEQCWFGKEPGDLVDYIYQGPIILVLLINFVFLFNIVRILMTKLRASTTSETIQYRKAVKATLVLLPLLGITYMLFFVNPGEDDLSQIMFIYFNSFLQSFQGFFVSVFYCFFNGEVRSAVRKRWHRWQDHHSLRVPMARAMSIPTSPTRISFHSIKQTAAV
T4 sequence (P24387 whole entry): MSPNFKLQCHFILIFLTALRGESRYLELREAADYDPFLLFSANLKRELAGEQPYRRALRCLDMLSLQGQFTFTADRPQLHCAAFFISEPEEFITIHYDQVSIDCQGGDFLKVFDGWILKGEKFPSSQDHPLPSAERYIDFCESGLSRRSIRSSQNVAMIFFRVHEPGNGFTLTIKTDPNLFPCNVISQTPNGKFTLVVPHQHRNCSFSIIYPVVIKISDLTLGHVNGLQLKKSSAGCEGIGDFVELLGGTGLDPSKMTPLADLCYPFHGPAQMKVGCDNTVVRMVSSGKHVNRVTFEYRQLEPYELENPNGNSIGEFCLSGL

[9] = molecular target: T4, Corticotropin-releasing factor receptor 2/Corticotropin-releasing factor-binding protein; test: activators of CRF receptor 2 with binding protein – uHTS hits, confirmation (AID 602473); type: functional; conditions: read-out: EC50_Mean
[10] = viability of uninfected HEp-2 cells – cell-based, HTS, cytotoxicity control for RSV inhibitor project, dose response (AID 2410); type: functional; conditions: human respiratory syncytial virus
[11] = cells; type: functional, cell-based
[12] = cells; type: functional, cell-based; remark: listed apart in the source

| Compound | EC50 [1] | EC50 [2] | EC50 [6] | also measured |
| --- | --- | --- | --- | --- |
| Cc1c(C(=O)/C=C/c2cccs2)oc2ccc(F)cc12 | 0.139 µM (active) | 34.1 µM (inconclusive) | – | IC50 [3]: > 100 µM (inactive) |
| CC(C)Oc1cccc(C(=O)Nc2ccc(CN3CCOCC3)cc2)c1 | – | – | – | IC50 [3]: 31.1 µM (active) |
| COCCCNC(=O)/C(C#N)=C/c1c(N2CCN(c3ccc(OC)cc3)CC2)nc2c(C)cccn2c1=O | – | – | – | IC50 [4]: 114 µM (active) |
| C#CCN1C(=O)S/C(=C/C=C/c2ccc(N(C)C)cc2)C1=O | – | – | – | IC50 [3]: > 100 µM (inactive) |
| CN(C)c1ccc(NC(=O)COC(=O)CNC(=O)c2cccs2)cc1 | – | – | – | IC50 [4]: 45.6 µM (active) |
| Fc1ccc(CN2CCN(C(c3ccccc3)c3ccccc3)CC2)cc1 | – | – | – | IC50 [4]: 236 µM (active) |
| CCn1c(CNc2ccc(OC)cc2)nnc1SCC(=O)c1ccc(OC)cc1 | – | – | – | EC50 [5]: 470 µM (active) |
| Cc1cccc(-n2cnc3cc(C(=O)N4CCCCC4)ccc32)c1 | 7.6 µM (active) | 13.9 µM (active) | 17.9 µM (active) | – |
| Cc1cc(C(c2nnnn2Cc2ccccc2)N2CCOCC2)c(C)n1-c1ccc2c(c1)OCO2 (centres undefined) | > 120 µM (not active) | 35.6 µM (active) | 91.8 µM (active) | – |
| Cc1ccc(C)n1NC(=O)c1ccccc1O | – | – | – | EC50 [7]: > 195 µM (not active); IC50 [8]: > 47.1 µM (inactive); EC50 [9]: > 53 µM (inactive) |
| COc1ccccc1C(=O)N1CCN(Cc2cccnc2)CC1 | – | – | – | IC50 [4]: 101 µM (active) |
| N#C/C(=C\C1CC=CCC1)c1nc2ccccc2[nH]1 (centres undefined) | 26.3 µM (active) | 23.7 µM (active) | 21.9 µM (active) | CC50 [10]: 23.4 µM (active) |
| Cc1ccc(Cn2nc(-c3ccccc3)nc2-c2ccccc2)cc1 | 20 µM (active) | 17.9 µM (active) | 5.09 µM (active) | – |
| O=C(/C=C/c1cccs1)Nc1ccc(N2CCOCC2)c(S(=O)(=O)Nc2ccccc2Cl)c1 | 46.3 µM (active) | 22.2 µM (active) | 12 µM (active) | – |
| CC(=O)c1ccc(-n2nncc2-c2ccc([N+](=O)[O-])cc2)cc1 | – | – | – | IC50 [3]: > 100 µM (inactive) |
| COc1ccc(/C=C2\SC(=O)N(CCNC(=O)C3CCN(S(=O)(=O)c4cccs4)CC3)C2=O)cc1 | 36.7 µM (active) | 19.1 µM (active) | 10.2 µM (active) | – |
| CC(C)(C)c1cc(C(=O)N2CCN(c3ncccn3)CC2)ccn1 | – | – | – | EC50 [11]: > 350 µM (not active); EC50 [12]: > 350 µM (not active) |
| O=C(c1cnn2c1NC(c1ccco1)CC2C(F)(F)F)N1CCN(c2cccc(Cl)c2)CC1 (centres undefined) | > 120 µM (not active) | > 120 µM (not active) | > 120 µM (not active) | – |
| O=C1/C(=C/c2nc3ccccc3[nH]2)SC(=S)N1c1ccccc1 | – | – | – | EC50 [11]: > 350 µM (not active); EC50 [12]: > 350 µM (not active) |

| Compound | EC50 [1] | EC50 [2] | EC50 [6] | also measured |
| --- | --- | --- | --- | --- |
| c1ccc(-c2ccc(OCCOCCn3cncn3)cc2)cc1 | 45.9 µM (active) | 17.2 µM (inconclusive) | 30.9 µM (active) | – |
| CCn1cc(Br)c(-c2nc3ccccc3c(=O)n2N)n1 | 8.16 µM (active) | > 120 µM (not active) | 102 µM (active) | – |
| O=C(CSc1nc(O)c2ccccc2n1)Nc1ccc(Br)cc1 | – | – | – | EC50 [11]: > 350 µM (not active); EC50 [12]: > 350 µM (not active) |
| O=C1N=C(N2CCCCC2)SC1=C1CCCCC1 | 5.25 µM (active) | 21.5 µM (active) | 13.8 µM (active) | – |
| CN(CCOC(=O)CN1C(=O)c2ccccc2C1=O)C1=NS(=O)(=O)c2ccccc21 | 46.8 µM (active) | > 120 µM (not active) | > 120 µM (not active) | – |
| O=C(/C=C/c1ccco1)Nc1nc(-c2ccccc2)cs1 | – | – | – | IC50 [3]: 68.6 µM (inactive) |
| CCCCCn1cnc2sc(-c3ccccc3)cc2c1=O | 2.43 µM (active) | 6.94 µM (active) | – | CC50 [10]: > 50 µM (active); IC50 [3]: > 100 µM (inactive) |
| Cc1cc(OC(C)C(=O)NNC(=O)Nc2ccc(F)cc2F)cc(C)c1Cl (centres undefined) | – | – | – | EC50 [11]: > 350 µM (not active); EC50 [12]: > 350 µM (not active) |
| O=C1/C(=C/c2ccccn2)SC(=S)N1CCc1ccccc1 | 10.9 µM (active) | 19.4 µM (active) | 8.16 µM (active) | – |
| COc1ccc(NC2CCCN(C(=O)CCN3CCCO3)C2)cc1 (centres undefined) | – | – | – | IC50 [4]: 128 µM (active) |
| N#Cc1ccc(CN2CCN(C(=O)c3cc(C4CC4)nn3-c3ccccc3)CC2)cc1 | – | – | – | IC50 [3]: 37.5 µM (active) |
| CC(=O)Nc1ccc2c(c1Br)Cc1ccccc1-2 | – | – | – | IC50 [3]: > 100 µM (inactive) |
| COc1ccc(NC2CCCN(C(=O)C3=NNC(=O)CC3)C2)cc1 (centres undefined) | – | – | – | IC50 [4]: 120 µM (active) |
| O=[N+]([O-])c1ccc(COc2ccc(CN3CCCCC3)cc2)cc1 | – | – | – | IC50 [3]: 3.46 µM (active) |
| CCCCN1C[C@H](c2ccc(Br)cc2)[C@@H](CC(=O)Nc2ccc(Br)cc2)C1=O | – | – | – | IC50 [3]: > 100 µM (inactive) |
| COC(=O)c1ccc2nc(-c3ccc(C)cc3)c(Cc3cccc(F)c3)n2c1 | – | – | – | IC50 [3]: > 100 µM (inactive) |
| Cc1cn([C@H]2C[C@H](O)[C@@H](CNCC3=Cc4cc(O)ccc4OC3)O2)c(=O)[nH]c1=O | – | – | – | IC50 [4]: 95.9 µM (active) |
| CCOc1ccccc1N(CC(=O)N/N=C/c1cc(Br)ccc1OC)S(C)(=O)=O | – | – | – | EC50 [11]: > 350 µM (not active); EC50 [12]: > 350 µM (not active) |
